Experimental findings from ChEMBL document CHEMBL5465560, “Selectivity Literature for EUbOPEN Chemogenomic Library” (2024) are described below.

Test [1] addresses Serine/threonine-protein kinase PLK3 (Homo sapiens, UniProt Q9H4B4). Put plainly: Selectivity interaction (Upstate Kinase Profiler service (Millipore)) EUB0000056c PLK3. The conditions noted are these: at 1 µM.
Test [2] addresses T1, Dual specificity protein kinase TTK (Homo sapiens) (UniProt P33981).
T1 sequence (whole entry): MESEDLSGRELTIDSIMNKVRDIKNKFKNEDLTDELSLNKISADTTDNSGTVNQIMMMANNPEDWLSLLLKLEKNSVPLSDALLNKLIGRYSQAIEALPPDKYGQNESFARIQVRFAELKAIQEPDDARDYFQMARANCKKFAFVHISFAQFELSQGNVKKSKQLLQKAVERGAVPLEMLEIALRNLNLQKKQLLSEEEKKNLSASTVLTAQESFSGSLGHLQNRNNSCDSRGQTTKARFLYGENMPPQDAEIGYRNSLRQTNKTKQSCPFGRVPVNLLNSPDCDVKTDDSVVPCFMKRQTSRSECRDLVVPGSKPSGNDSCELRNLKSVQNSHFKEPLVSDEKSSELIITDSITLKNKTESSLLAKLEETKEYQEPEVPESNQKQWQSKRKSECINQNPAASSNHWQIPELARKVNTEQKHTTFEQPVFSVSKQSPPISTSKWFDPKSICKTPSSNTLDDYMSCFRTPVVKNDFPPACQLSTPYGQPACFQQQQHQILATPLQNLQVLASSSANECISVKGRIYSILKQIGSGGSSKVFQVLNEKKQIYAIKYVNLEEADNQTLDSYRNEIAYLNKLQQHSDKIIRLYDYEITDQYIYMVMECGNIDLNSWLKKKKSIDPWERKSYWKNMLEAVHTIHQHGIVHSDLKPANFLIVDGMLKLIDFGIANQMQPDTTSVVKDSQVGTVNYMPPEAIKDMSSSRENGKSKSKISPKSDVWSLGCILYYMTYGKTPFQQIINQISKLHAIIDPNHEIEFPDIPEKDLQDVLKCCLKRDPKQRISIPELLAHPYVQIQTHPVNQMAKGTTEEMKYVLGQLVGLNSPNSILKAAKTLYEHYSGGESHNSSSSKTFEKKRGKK
The test is described as follows: Selectivity interaction (ProQinase) EUB0000171b TTK.

The target of test [3] is Serine/threonine-protein kinase SIK3 (Homo sapiens) (UniProt Q9Y2K2). Put plainly: Selectivity interaction (ProQinase) EUB0000171b SIK3.
Chain of Serine/threonine-protein kinase SIK3 (Homo sapiens) (Q9Y2K2 whole entry, looked up): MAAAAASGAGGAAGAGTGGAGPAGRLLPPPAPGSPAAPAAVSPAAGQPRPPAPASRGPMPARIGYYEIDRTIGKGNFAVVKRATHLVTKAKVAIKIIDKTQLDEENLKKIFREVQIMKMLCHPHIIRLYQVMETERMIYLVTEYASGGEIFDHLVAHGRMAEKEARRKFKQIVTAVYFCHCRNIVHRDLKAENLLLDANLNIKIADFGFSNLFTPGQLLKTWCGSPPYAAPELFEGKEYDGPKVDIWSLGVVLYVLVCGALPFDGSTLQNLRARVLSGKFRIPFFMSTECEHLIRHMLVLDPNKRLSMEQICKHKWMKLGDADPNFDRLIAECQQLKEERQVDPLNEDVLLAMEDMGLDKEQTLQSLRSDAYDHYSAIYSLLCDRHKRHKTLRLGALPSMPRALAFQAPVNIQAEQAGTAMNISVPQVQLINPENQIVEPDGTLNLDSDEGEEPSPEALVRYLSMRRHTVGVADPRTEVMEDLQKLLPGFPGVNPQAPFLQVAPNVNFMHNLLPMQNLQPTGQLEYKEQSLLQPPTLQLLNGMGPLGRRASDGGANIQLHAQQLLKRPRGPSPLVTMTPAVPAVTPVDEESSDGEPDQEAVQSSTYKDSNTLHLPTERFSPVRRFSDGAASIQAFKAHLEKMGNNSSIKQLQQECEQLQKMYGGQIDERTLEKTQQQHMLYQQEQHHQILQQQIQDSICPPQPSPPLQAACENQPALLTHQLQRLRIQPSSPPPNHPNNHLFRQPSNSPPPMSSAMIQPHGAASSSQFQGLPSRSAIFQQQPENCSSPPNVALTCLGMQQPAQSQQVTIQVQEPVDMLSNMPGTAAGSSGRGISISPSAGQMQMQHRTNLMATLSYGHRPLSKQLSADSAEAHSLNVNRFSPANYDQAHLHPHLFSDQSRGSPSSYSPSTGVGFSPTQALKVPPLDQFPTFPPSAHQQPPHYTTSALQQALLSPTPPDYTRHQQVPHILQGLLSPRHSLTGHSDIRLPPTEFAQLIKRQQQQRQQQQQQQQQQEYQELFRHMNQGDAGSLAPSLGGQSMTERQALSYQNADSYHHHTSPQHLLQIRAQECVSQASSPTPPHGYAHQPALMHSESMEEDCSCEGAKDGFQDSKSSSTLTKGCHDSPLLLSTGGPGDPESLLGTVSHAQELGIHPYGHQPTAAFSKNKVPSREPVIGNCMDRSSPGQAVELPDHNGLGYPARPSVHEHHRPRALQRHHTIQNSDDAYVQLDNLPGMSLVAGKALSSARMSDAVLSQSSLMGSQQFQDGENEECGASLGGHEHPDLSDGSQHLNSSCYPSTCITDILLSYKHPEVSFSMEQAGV
Test [4] deals with Homeodomain-interacting protein kinase 3 (Homo sapiens, UniProt Q9H422). The conditions noted are these: at 10 µM.
Chain of Homeodomain-interacting protein kinase 3 (Q9H422 whole entry, looked up): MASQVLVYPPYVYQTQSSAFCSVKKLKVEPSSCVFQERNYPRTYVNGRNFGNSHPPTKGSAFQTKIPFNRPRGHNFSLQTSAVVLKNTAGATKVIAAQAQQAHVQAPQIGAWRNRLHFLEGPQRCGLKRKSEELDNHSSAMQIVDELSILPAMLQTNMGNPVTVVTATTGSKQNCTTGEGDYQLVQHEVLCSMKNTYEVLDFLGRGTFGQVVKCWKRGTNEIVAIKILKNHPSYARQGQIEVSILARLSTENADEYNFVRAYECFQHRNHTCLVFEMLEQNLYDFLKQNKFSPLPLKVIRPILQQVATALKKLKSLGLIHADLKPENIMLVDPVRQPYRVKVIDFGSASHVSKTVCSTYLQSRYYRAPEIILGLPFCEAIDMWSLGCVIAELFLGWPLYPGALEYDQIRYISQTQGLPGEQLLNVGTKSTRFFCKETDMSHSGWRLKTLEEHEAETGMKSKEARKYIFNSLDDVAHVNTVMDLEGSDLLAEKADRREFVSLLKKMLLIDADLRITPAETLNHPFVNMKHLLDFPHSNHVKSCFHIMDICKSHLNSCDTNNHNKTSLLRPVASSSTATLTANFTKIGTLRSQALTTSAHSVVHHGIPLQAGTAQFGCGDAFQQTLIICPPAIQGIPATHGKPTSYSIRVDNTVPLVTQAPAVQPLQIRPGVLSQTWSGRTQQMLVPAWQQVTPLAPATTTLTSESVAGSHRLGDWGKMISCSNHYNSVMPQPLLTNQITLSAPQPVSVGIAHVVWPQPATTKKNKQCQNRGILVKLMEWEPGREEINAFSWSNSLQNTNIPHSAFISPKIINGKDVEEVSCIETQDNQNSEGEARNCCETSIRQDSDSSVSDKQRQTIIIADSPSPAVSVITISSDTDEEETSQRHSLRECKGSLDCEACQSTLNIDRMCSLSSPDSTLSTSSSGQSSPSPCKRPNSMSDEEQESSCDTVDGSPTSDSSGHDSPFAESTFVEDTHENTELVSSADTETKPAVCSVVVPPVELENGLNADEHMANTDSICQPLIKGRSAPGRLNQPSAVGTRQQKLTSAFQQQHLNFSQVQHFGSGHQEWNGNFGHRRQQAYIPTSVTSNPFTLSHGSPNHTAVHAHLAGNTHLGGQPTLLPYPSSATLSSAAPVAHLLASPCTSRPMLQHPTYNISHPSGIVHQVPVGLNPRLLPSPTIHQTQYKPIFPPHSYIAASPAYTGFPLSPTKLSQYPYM
The target in test [5] is MAP kinase-activated protein kinase 2 (Homo sapiens, UniProt P49137). The test is described as follows: Selectivity interaction (Ambit KINOMEscan and KiNATiv profiling in Jurkat cells) EUB0000090b MAPKAPK2. The test is classed as cell-based. The conditions noted are these: at 1 µM.
Chain of MAP kinase-activated protein kinase 2 (P49137 whole entry, looked up): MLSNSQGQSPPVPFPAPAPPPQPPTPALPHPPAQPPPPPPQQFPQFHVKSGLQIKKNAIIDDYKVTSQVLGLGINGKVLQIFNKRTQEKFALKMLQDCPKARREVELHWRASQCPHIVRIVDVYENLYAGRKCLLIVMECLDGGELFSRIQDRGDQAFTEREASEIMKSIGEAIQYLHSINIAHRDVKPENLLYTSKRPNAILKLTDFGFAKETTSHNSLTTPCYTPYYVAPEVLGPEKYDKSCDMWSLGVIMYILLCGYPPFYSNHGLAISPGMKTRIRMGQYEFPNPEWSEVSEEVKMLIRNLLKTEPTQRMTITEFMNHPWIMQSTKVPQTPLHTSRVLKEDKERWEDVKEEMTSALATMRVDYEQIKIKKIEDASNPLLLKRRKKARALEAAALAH
Test [6] addresses Histone-lysine N-methyltransferase SETDB1 (Homo sapiens) (UniProt Q15047). Conditions: at 10 µM.
The target of test [7] is Ribosomal protein S6 kinase beta-1 (Homo sapiens, UniProt P23443). Put plainly: Selectivity interaction (ActivX KiNativ screen (kinase selectivity in THP-1 cell lysates)) EUB0000639a RPS6KB1. The test is classed as subcellular. The conditions noted are these: lysate, at 0.04 µM.
Chain of Ribosomal protein S6 kinase beta-1 (P23443 whole entry, looked up): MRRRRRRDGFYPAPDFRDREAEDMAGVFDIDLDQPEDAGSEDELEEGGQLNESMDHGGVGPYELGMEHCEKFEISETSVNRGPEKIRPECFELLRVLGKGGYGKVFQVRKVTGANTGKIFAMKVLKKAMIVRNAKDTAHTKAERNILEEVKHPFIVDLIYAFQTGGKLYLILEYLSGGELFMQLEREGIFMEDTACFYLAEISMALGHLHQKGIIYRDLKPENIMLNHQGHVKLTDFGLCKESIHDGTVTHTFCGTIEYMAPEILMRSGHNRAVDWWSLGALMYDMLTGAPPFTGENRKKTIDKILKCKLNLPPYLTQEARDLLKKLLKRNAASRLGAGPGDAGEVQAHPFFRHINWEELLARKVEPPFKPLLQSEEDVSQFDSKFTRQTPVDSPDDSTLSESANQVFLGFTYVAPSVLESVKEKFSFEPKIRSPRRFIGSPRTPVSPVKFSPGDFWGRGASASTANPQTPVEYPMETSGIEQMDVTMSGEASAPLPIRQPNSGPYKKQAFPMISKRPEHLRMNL
Test [8] addresses T2, Dual specificity mitogen-activated protein kinase kinase 6 (Homo sapiens) (UniProt P52564).
T2 sequence (whole entry): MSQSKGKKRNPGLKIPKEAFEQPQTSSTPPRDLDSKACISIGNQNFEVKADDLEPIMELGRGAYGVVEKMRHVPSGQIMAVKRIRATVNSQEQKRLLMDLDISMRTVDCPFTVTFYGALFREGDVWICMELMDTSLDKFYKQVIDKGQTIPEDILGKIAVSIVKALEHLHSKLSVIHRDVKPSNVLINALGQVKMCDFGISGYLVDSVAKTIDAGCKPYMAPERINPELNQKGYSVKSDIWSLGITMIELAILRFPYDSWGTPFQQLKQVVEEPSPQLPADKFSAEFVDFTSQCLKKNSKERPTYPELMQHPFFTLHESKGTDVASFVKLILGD
The test is described as follows: Selectivity interaction (Kinase panel (DSF assay)) EUB0001559a MAP2K6. A general note: In DSF a fluorescence change marks the thermal transition of the protein.

For test [9], the target named is T3, Megakaryocyte-associated tyrosine-protein kinase (Homo sapiens) (UniProt P42679).
T3 sequence (whole entry): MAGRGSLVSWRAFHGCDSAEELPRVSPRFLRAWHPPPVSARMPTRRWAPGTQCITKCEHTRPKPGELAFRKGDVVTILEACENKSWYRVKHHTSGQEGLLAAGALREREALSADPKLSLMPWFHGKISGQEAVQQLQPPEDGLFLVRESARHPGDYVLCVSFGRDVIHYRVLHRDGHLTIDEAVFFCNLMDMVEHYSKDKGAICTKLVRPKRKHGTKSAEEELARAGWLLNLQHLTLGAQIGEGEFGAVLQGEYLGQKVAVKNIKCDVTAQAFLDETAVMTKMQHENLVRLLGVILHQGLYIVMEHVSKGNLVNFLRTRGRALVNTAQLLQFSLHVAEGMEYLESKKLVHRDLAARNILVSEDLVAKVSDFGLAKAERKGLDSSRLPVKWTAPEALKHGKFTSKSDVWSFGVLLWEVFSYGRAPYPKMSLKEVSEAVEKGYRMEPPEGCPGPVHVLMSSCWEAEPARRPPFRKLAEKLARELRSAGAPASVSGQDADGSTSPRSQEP
Put plainly: Selectivity interaction (KinomeScan (DiscoverX)) EUB0000595a MATK. Conditions: at 10 µM.

Test [10] addresses Myosin light chain kinase, smooth muscle (Homo sapiens, UniProt Q15746). Put plainly: Selectivity interaction (KinomeScan (DiscoverX)) EUB0000595a MYLK. Conditions: at 10 µM.
Test [11] has as its target Casein kinase II subunit alpha (Homo sapiens, UniProt P68400). Put plainly: Selectivity interaction (KinomeScan (DiscoverX)) EUB0001619a CSNK2A1. Conditions: at 1 µM.
The target in test [12] is RAC-alpha serine/threonine-protein kinase (Homo sapiens, UniProt P31749). Put plainly: Selectivity interaction (Kinase panel (KiNativ target engagement assay in Jurkat cells)) EUB0001635a AKT1. The class given is cell-based. Conditions: at 1 µM.
Chain of RAC-alpha serine/threonine-protein kinase (P31749 whole entry): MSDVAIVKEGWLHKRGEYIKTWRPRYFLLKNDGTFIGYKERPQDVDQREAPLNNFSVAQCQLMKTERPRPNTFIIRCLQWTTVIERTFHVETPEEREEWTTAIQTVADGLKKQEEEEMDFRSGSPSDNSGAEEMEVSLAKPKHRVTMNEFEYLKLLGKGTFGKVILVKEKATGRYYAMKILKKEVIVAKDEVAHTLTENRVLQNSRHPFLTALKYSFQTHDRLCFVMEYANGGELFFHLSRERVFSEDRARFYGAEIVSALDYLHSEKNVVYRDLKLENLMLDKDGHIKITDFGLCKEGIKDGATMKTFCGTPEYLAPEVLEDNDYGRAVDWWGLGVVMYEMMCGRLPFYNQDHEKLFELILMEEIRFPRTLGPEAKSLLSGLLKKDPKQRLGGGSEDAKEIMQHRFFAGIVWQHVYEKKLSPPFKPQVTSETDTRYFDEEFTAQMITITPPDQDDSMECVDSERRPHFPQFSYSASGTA

Chain of Casein kinase II subunit alpha (P68400 whole entry, looked up): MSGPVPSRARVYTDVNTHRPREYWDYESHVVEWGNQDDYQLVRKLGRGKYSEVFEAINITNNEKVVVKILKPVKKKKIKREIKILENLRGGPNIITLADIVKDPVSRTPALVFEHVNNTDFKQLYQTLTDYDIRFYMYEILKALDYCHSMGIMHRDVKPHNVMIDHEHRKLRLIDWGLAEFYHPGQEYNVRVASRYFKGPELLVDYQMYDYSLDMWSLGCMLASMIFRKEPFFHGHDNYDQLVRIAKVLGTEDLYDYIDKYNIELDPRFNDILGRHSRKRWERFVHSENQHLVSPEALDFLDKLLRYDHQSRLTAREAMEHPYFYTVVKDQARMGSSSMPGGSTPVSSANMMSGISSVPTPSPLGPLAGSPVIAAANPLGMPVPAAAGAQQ
Chain of Serine/threonine-protein kinase PLK3 (Q9H4B4 whole entry, looked up): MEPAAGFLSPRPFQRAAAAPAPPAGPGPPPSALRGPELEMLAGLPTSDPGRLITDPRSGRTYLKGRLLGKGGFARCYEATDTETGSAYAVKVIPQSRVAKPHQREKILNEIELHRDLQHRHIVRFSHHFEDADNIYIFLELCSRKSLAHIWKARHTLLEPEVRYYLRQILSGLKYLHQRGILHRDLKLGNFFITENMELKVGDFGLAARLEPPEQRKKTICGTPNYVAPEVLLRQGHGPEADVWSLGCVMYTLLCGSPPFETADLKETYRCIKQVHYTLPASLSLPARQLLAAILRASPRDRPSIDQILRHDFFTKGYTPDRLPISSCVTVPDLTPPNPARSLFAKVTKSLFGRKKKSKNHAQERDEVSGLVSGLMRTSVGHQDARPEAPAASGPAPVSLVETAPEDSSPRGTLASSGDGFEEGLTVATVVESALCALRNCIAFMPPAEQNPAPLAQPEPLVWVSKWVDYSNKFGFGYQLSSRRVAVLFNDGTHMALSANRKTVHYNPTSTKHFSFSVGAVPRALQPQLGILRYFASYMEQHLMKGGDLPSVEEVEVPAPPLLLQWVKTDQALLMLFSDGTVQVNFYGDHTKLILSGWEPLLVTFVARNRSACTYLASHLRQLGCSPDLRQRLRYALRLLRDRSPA

As for `Cc1ccc(-c2ccc3c(ccc4sc5c(c43)NC[C@@H](C)NC5=O)n2)cn1`, in test [1], the % of inhibition is -2%.
As to `C=CC(=O)Nc1cccc(C(=O)Nc2ccc(Nc3cc(-c4[nH]c(SC)nc4C)ccn3)cc2)c1`, the % of control came out at 72% in test [2] (at 1 µM), 34% in [2] (at 5 µM), 65% in test [3] (at 1 µM) and 47% in test [3] (at 5 µM).
Take `Cc1cc([C@@H](C)Nc2ccccc2C(=O)O)c2nc(N3CCOCC3)cc(=O)n2c1` [AZD-6482]: the % of control in test [4] stood at 89%.
On to `CN(C)C/C=C/C(=O)Nc1ccc(C(=O)N2CCCC(Nc3ncc(Cl)c(-c4c[nH]c5ccccc45)n3)C2)cc1` (centres undefined), for which, in test [5], the % of control came out at 97%.
With `CNCCN1CCC(c2cc(CN(C)C(=O)c3cccc(Oc4ccccc4)c3)ccn2)CC1`, the % activity in [6] is over 90%.
Take `CC[C@@H]1[C@H](F)C(=O)N[C@@H]1COc1nccc2cc(C(N)=O)c(OC)cc12` [ZIMLOVISERTIB]: the % of inhibition in test [7] came out at 9.9%.
`CN(C(=O)c1cnn2cccnc12)c1cc2c(cc1N1CCOCC1)C(=O)N(C[C@@H](F)C(C)(C)O)C2` gave a dTM in test [8] of 0 K.
For the molecule `COCC(=O)NC/C=C/c1ccc2ncnc(Nc3ccc(Oc4ccc(C)nc4)c(C)c3)c2c1` [CP-724714], the figures for the % of control in [9] and in test [10] were 100% and 87%, respectively.
Take `N#Cc1cccc(-c2c[nH]c3ncnc(N4CCOCC4)c23)c1`: the % of control in test [11] worked out at 75%.
For the molecule `C=CC(=O)Nc1ccc(C(=O)Nc2[nH]nc3c2CN(C(=O)N[C@H](CN(C)C)c2ccccc2)C3(C)C)cc1`, the % of engagement in [12] was -9.9%.
